Where two headings read alike, the source gives them in different places.
What was measured:
Salmonella typhimurium [1] = test: Example 2: effect of carbon chain length of individual organic acids on antimicrobial activity in water; format: cell-based; design: MIC at 4 HR / MIC at 24 FIR: unit not given here; details: for MIC at 4 HR / MIC at 24 FIR: Minimum Inhibitory Concentration of Organic Acids against Salmonella, by linear regression; for MIC at 24 FIR: 24 hours; for killing at […] / killing at 0.05 % / killing at 0.075 % / killing at 0.1 %: Salmonella enterica, TYPHIMURIUM
Procedure: 100 ul of a nutrient broth culture of Salmonella typhimurium was added to each dilution tube. After addition, tubes were vortexed and allowed to stand. At 4 and 24 hours after addition of the inoculum, 100 ul of the solution was plated on agar (triplicate plates). Plates were incubated at 37° C. for 24 hours prior to enumeration. The minimum effective dose of each acid was be determined by linear regression: […]

Salmonella typhimurium [2] = test: Example 1: effect of pH buffering of acetic and propionic acid on antimicrobial activity in water; format: cell-based
Procedure: Propionic and acetic acids were buffered with ammonium hydroxide to pHs ranging from 1 to 7. Acid contents of the buffered solutions were determined by a weight to weight ratio calculation to obtain the same acid content in the test solutions. […] The pHs of the deionized water solutions were recorded and any problems with solubility noted.
100 ul of a nutrient broth culture of Salmonella typhimurium was added to each dilution tube. After addition, tubes were vortexed and allowed to stand. At 4 and 24 hours after addition of the inoculum, 100 ul of the solution was plated on Standard Plate agar (triplicate plates). Plates were incubated at 37° C. for 24 hours prior to enumeration. The minimum effective dose of each acid was determined by linear regression.

[3] = Product Conc. 0.025 (% acid solution in water), 4 hr
[4] = Product Conc. 0.025 (% acid solution in water), 24 hr
[5] = Product Conc. 0.05 (% acid solution in water), 4 hr
[6] = Product Conc. 0.05 (% acid solution in water), 24 hr
[7] = Product Conc. 0.075 (% acid solution in water), 4 hr
[8] = Product Conc. 0.075 (% acid solution in water), 24 hr
[9] = Product Conc. 0.1 (% acid solution in water), 4 hr
[10] = Product Conc. 0.1 (% acid solution in water), 24 hr
[11] = Product Conc. 0.025 (% acid solution in water), 4 hr, read-out: Salmonella at time Interval 4 hr % reduction
[12] = Product Conc. 0.025 (% acid solution in water), 24 hr, read-out: Salmonella at time Interval 24 hr % reduction
[13] = Product Conc. 0.05 (% acid solution in water), 4 hr, read-out: Salmonella at time Interval 4 hr % reduction
[14] = Product Conc. 0.05 (% acid solution in water), 24 hr, read-out: Salmonella at time Interval 24 hr % reduction
[15] = Product Conc. 0.075 (% acid solution in water), 4 hr, read-out: Salmonella at time Interval 4 hr % reduction
[16] = Product Conc. 0.075 (% acid solution in water), 24 hr, read-out: Salmonella at time Interval 24 hr % reduction
[17] = Product Conc. 0.1 (% acid solution in water), 4 hr, read-out: Salmonella at time Interval 4 hr % reduction
[18] = Product Conc. 0.1 (% acid solution in water), 24 hr, read-out: Salmonella at time Interval 24 hr % reduction
[19] = 4 h, read-out: Salmonella at time Interval 4 hr % reduction
[20] = 24 h, read-out: Salmonella at time Interval 24 hr % reduction

Compound | MIC at 4 HR (Salmonella typhimurium [1]; 4 hr) | MIC at 24 FIR (Salmonella typhimurium [1]) | Salmonella at time Interval 4 hr cfu/g (Salmonella typhimurium [1]; [3]) [cfu/g] | Salmonella at time Interval 24 hr cfu/g (Salmonella typhimurium [1]; [4]) [cfu/g] | Salmonella at time Interval 4 hr cfu/g (Salmonella typhimurium [1]; [5]) [cfu/g] | Salmonella at time Interval 24 hr cfu/g (Salmonella typhimurium [1]; [6]) [cfu/g] | Salmonella at time Interval 4 hr cfu/g (Salmonella typhimurium [1]; [7]) [cfu/g] | Salmonella at time Interval 24 hr cfu/g (Salmonella typhimurium [1]; [8]) [cfu/g] | Salmonella at time Interval 4 hr cfu/g (Salmonella typhimurium [1]; [9]) [cfu/g] | Salmonella at time Interval 24 hr cfu/g (Salmonella typhimurium [1]; [10]) [cfu/g] | killing at […] (Salmonella typhimurium [1]; [11]) [%] | killing at […] (Salmonella typhimurium [1]; [12]) [%] | killing at 0.05 % (Salmonella typhimurium [1]; [13]) [%] | killing at 0.05 % (Salmonella typhimurium [1]; [14]) [%] | killing at 0.075 % (Salmonella typhimurium [1]; [15]) [%] | killing at 0.075 % (Salmonella typhimurium [1]; [16]) [%] | killing at 0.1 % (Salmonella typhimurium [1]; [17]) [%] | killing at 0.1 % (Salmonella typhimurium [1]; [18]) [%] | other results
CCCCCCCCCCCC(=O)O [Lauric acid/KOH, Lauric acid] | 0.072 | <0.025 | 670 | 20 | 0 | 0 | 0 | 0 | 0 | 0 | 58 | 99 | 100 | 100 | 100 | 100 | 100 | 100 | –
CCCCCCCCC(=O)O [Pelargonic acid/KOH, Pelargonic acid] | – | – | 7 | 0 | 0 | 0 | 0 | 0 | 0 | 0 | 100 | 100 | 100 | 100 | 100 | 100 | 100 | 100 | –
CCCCCC(=O)O [Caproic acid] | 0.103 | 0.063 | 1267 | 30 | 1433 | 7 | 523 | 0 | 27 | 0 | – | – | – | – | – | – | – | – | killing at 0.05 % (Salmonella typhimurium [1]; [19]): 10%; killing at 0.075 % (Salmonella typhimurium [1]; [19]): 67%; killing at 0.1 % (Salmonella typhimurium [1]; [19]): 98%; killing at […] (Salmonella typhimurium [1]; [19]): 21%; killing at 0.05 % (Salmonella typhimurium [1]; [20]): 100%; killing at 0.075 % (Salmonella typhimurium [1]; [20]): 100%; killing at 0.1 % (Salmonella typhimurium [1]; [20]): 100%; killing at […] (Salmonella typhimurium [1]; [20]): 98%
CCCCCCCC(=O)O [Caprylic acid/KOH, Caprylic acid] | 0.109 | 0.090 | 1567 | 1400 | 1333 | 797 | 1100 | 77 | 0 | 0 | 2 | 18 | 17 | 53 | 31 | 95 | 100 | 100 | –
CCCCC(=O)O [Valeric acid] | 0.174 | 0.070 | 1233 | 533 | 1267 | 73 | 990 | 37 | 657 | 17 | 23 | 69 | 21 | 96 | 38 | 98 | 59 | 99 | –
CCC(=O)O [Propionic pH 1, Propionic acid] | – | – | – | – | – | – | – | – | – | – | – | – | – | – | – | – | – | – | MIC at 4 Hr (Salmonella typhimurium [2]; Minimum Inhibitory Concentrations, by linear regression over 0.025-0.1% acid solutions, 4 hr, pH 1): 0.131; MIC at 24 HR (Salmonella typhimurium [2]; Minimum Inhibitory Concentrations, by linear regression over 0.025-0.1% acid solutions, 24 hr, pH 1): 0.066; Salmonella at time Interval 4 hr % reduction (Salmonella typhimurium [2]; [3]): 20%; Salmonella at time Interval 4 hr cfu/g (Salmonella typhimurium [2]; [3]): 1200 cfu/g; Salmonella at time Interval 24 hr % reduction (Salmonella typhimurium [2]; [4]): 89%; Salmonella at time Interval 24 hr cfu/g (Salmonella typhimurium [2]; [4]): 133 cfu/g; Salmonella at time Interval 4 hr % reduction (Salmonella typhimurium [2]; [5]): 39%; Salmonella at time Interval 4 hr cfu/g (Salmonella typhimurium [2]; [5]): 923 cfu/g; Salmonella at time Interval 24 hr % reduction (Salmonella typhimurium [2]; [6]): 97%; Salmonella at time Interval 24 hr cfu/g (Salmonella typhimurium [2]; [6]): 37 cfu/g; Salmonella at time Interval 4 hr % reduction (Salmonella typhimurium [2]; [7]): 65%; Salmonella at time Interval 4 hr cfu/g (Salmonella typhimurium [2]; [7]): 530 cfu/g; Salmonella at time Interval 24 hr % reduction (Salmonella typhimurium [2]; [8]): 98%; Salmonella at time Interval 24 hr cfu/g (Salmonella typhimurium [2]; [8]): 23 cfu/g; Salmonella at time Interval 4 hr % reduction (Salmonella typhimurium [2]; [9]): 70%; Salmonella at time Interval 4 hr cfu/g (Salmonella typhimurium [2]; [9]): 450 cfu/g; Salmonella at time Interval 24 hr % reduction (Salmonella typhimurium [2]; [10]): 99%; Salmonella at time Interval 24 hr cfu/g (Salmonella typhimurium [2]; [10]): 10 cfu/g
CCCCCCC(=O)O [Oenanthic acid] | 0.075 | 0.063 | 1103 | 10 | 0 | 0 | 0 | 0 | 0 | 0 | – | – | – | – | – | – | – | – | Salmonella at time Interval 4 hr % reduction (Salmonella typhimurium [1]; [3]): 31%; Salmonella at time Interval 24 hr % reduction (Salmonella typhimurium [1]; [4]): 99%; Salmonella at time Interval 4 hr % reduction (Salmonella typhimurium [1]; [5]): 100%; Salmonella at time Interval 24 hr % reduction (Salmonella typhimurium [1]; [6]): 100%; Salmonella at time Interval 4 hr % reduction (Salmonella typhimurium [1]; [7]): 100%; Salmonella at time Interval 24 hr % reduction (Salmonella typhimurium [1]; [8]): 100%; Salmonella at time Interval 4 hr % reduction (Salmonella typhimurium [1]; [9]): 100%; Salmonella at time Interval 24 hr % reduction (Salmonella typhimurium [1]; [10]): 100%
